{
  "source": "patent US6087377A",
  "about": "(priority 1999, dated 2000)",
  "key": {"[1]": {"tested_on": "beta-glucuronidase", "settings": "cited from earlier work"}, "[2]": {"tested_on": "PCNA", "assay": "PCNA level in HT-29 cells", "type": "cell-based, human"}, "[3]": {"tested_on": "HT-29 cells", "settings": "HT-29 human adenocarcinoma cells; Bacon et al. 1996 abstract; cited from earlier work"}, "[4]": {"tested_on": "p53", "assay": "Western immunoblot: p53 level in HT-29 cells", "type": "cell-based, human", "settings": "HT-29, mutant (inactive) p53, Western immunoblot"}, "[5]": {"tested_on": "p53", "assay": "p53 level in WI-38 fibroblasts", "type": "cell-based, human", "settings": "WI-38, IC90 of SN-38 (40 nM)"}, "[6]": {"tested_on": "PCNA", "assay": "PCNA level in WI-38 fibroblasts", "type": "cell-based, human", "settings": "WI-38, IC90 of SN-38 (40 nM)"}, "[7]": {"tested_on": "HT-29 cells", "assay": "Growth inhibition of human colon adenocarcinoma HT-29 cells", "type": "cell-based"}, "[8]": {"tested_on": "p21", "assay": "p21 level in WI-38 fibroblasts", "type": "cell-based, human", "settings": "WI-38, following p53 and PCNA increase"}, "[9]": {"tested_on": "WI-38 normal human diploid lung fibroblasts", "settings": "normal WI-38 human fibroblasts; cited from earlier work"}, "[10]": {"tested_on": "HT-29 cells", "assay": "Flow cytometric cell cycle arrest and apoptosis in HT-29 cells", "type": "cell-based, human"}, "[11]": {"tested_on": "WI-38 normal human diploid lung fibroblasts", "assay": "Growth inhibition of WI-38 normal human diploid lung fibroblasts", "type": "cell-based", "settings": "WI-38 fibroblasts"}, "[12]": {"tested_on": "p21", "assay": "p21 detection in HT-29 cells", "type": "cell-based, human"}, "[13]": {"tested_on": "WI-38 normal human diploid lung fibroblasts", "assay": "Flow cytometry cell cycle arrest, apoptosis and recovery in WI-38 fibroblasts", "type": "cell-based"}, "[14]": {"tested_on": "cells", "settings": "droloxifene, Hasmann et al. 1994; cited from earlier work"}, "[15]": {"tested_on": "proliferating cell nuclear antigen (PCNA)", "settings": "hamster, in vivo"}, "[16]": {"tested_on": "cancer patients", "settings": "cited from earlier work"}, "[17]": {"tested_on": "proliferating cell nuclear antigen (PCNA)", "assay": "Western immunoblot and immunohistochemistry for PCNA in irinotecan-treated hamster intestinal epithelium", "settings": "Western immunoblot"}, "[18]": {"tested_on": "intestinal epithelium", "settings": "hamster, in vivo"}, "[19]": {"tested_on": "intestinal epithelium", "assay": "Irinotecan toxicity in the Syrian hamster: intestinal epithelium, diarrhea, weight loss"}, "[20]": {"tested_on": "humans", "settings": "loperamide, aggressive high-dose co-therapy, 2 hr intervals at onset of diarrhea; cited from earlier work"}, "[21]": {"tested_on": "cyclin D1/cdk4", "settings": "thought to be the mechanism; Watts et al. 1995; cited from earlier work"}, "[22]": {"tested_on": "MCF-7 breast cancer cells", "settings": "tamoxifen, Otto et al. 1996, cited from earlier work"}, "[23]": {"tested_on": "hamster colon", "assay": "Tamoxifen pre- and co-treatment of CPT-11-treated hamsters: colon morphology and function", "type": "in vivo", "settings": "tamoxifen pre- and co-treatment with CPT-11"}, "[24]": {"tested_on": "hamsters", "assay": "Tamoxifen pre- and co-treatment of CPT-11-treated hamsters: weight loss and survival", "type": "in vivo, hamster"}, "[25]": {"tested_on": "WI-38 cells", "assay": "Effect of tamoxifen on replication of SN-38-treated normal WI-38 cells", "type": "cell-based, human", "settings": "WI-38 (non-tumor) pretreated with tamoxifen prior to and during SN-38 exposure"}},
  "note": "Entries after “also recorded” stand apart in the source; their conditions may differ. Where a name gives a salt, the structure may show the parent alone. Read-outs that look alike come from different tables or passages of the source.",
  "data": [
    {"smiles": "O=C(O)[C@H]1O[C@@H](Oc2cc3oc(-c4ccccc4)cc(=O)c3c(O)c2O)[C@H](O)[C@@H](O)[C@@H]1O", "note": "[Baicalin, baicalin]", "values": [
      {"measurement": "inhibition of beta-glucuronidase (presumed anti-diarrheal mechanism)", "setting": "[1]", "result": "has similar activity"}
    ]},
    {"smiles": "CCc1c2c(nc3ccc(O)cc13)-c1cc3c(c(=O)n1C2)COC(=O)[C@]3(O)CC", "note": "[SN-38]", "values": [
      {"measurement": "PCNA levels", "setting": "[2]", "result": "increased"},
      {"measurement": "cell cycle arrest and apoptosis", "setting": "[3]", "result": "arrest in G2 /M followed by apoptosis"},
      {"measurement": "levels of p53", "setting": "[4]", "result": "upregulated"},
      {"measurement": "levels of p53 (wild type)", "setting": "[5]", "result": "increased"},
      {"measurement": "PCNA levels", "setting": "[6]", "result": "increased along with PCNA"},
      {"measurement": "IC90", "setting": "[7]", "result": 0.01, "unit": "µM"},
      {"measurement": "inhibition at 0.01 µM", "setting": "[7]; SN-38 10 nM", "result": "> 90", "unit": "%"},
      {"measurement": "p21", "setting": "[8]", "result": "followed by increases in p21"},
      {"measurement": "cell cycle arrest", "setting": "[9]", "result": "arrested in S/G2"},
      {"measurement": "apoptosis / recovery from arrest", "setting": "[10]; HT-29, after arrest", "result": "cells did not recover but instead underwent programmed cell death (apoptosis)"},
      {"measurement": "cell cycle arrest (flow cytometry)", "setting": "[10]; HT-29, growth-arrested cells", "result": "replication was blocked in the G2 phase of the cell cycle"},
      {"measurement": "IC90", "setting": "[11]", "result": 0.04, "unit": "µM"},
      {"measurement": "p21", "setting": "[12]", "result": "p21 is not upregulated; we have been unable to detect p21"},
      {"measurement": "apoptosis", "setting": "[13]; WI-38, IC90 of SN-38 (40 nM)", "result": "did not undergo apoptosis"},
      {"measurement": "cell cycle arrest (flow cytometry)", "setting": "[13]; WI-38, IC90 of SN-38 (40 nM)", "result": "arrested in the S phase of the cell cycle"},
      {"measurement": "re-entry into the cell cycle", "setting": "[13]; WI-38, when drug was removed", "result": "slowly re-entered the cell cycle when drug was removed"}
    ]},
    {"smiles": "CC/C(=C(/c1ccc(OCCN(C)C)cc1)c1cccc(O)c1)c1ccccc1", "note": "[droloxifene]", "values": [
      {"measurement": "cell cycle block", "setting": "[14]", "result": "block cells in the G1 phase of the cell cycle in a manner similar to tamoxifen"}
    ]},
    {"smiles": "CCc1c2c(nc3ccc(OC(=O)N4CCC(N5CCCCC5)CC4)cc13)-c1cc3c(c(=O)n1C2)COC(=O)[C@]3(O)CC", "note": "[irinotecan, irinotecan hydrochloride]", "values": [
      {"measurement": "PCNA elevation (Western immunoblot)", "setting": "[15]", "result": "time-dependent elevation in proliferating cell nuclear antigen (PCNA)"},
      {"measurement": "PCNA immunohistochemistry", "setting": "[15]", "result": "increase in the number of labelled epithelial cells and labelling intensity in treated animals, with labelled cells positionally located farther towards the villus tip compared to controls"},
      {"measurement": "major dose-limiting toxicity", "setting": "[16]; cancer patients", "result": "severe delayed chronic grade 3-4 diarrhea"},
      {"measurement": "intestinal toxicity (diarrhea)", "setting": "[16]; humans, CAMPTOSAR Injection", "result": "potentially life-threatening intestinal toxicity (diarrhea)"},
      {"measurement": "antitumor activity", "setting": "[16]; variety of tumor types", "result": "activity against a variety of tumor types, and in particular refractory colorectal tumors"},
      {"measurement": "time of detection of PCNA elevation", "setting": "[17]", "result": 1, "unit": "days"},
      {"measurement": "colon epithelium histology", "setting": "[18]", "result": "thinned and vacuolated"},
      {"measurement": "crypt cell replication (bromodeoxyuridine labelling)", "setting": "[18]", "result": "reduction in crypt cell replication"},
      {"measurement": "diarrhea and weight loss", "setting": "[18]", "result": "coincident with diarrhea and weight loss"},
      {"measurement": "structural integrity of the mucosal epithelium", "setting": "[18]", "result": "time-dependent loss of structural integrity of the mucosal epithelium in the jejunum and ileum; villi appeared corrugated and epithelial cells lost their typical columnar morphology"},
      {"measurement": "water and electrolyte loss", "setting": "[18]", "result": "increased water and electrolyte loss"},
      {"measurement": "toxicity to the intestinal epithelium", "setting": "[19]; coincident with onset of delayed diarrhea", "result": "considerable toxicity to the intestinal epithelium"},
      {"measurement": "crypts / epithelial cells", "setting": "[19]; histology", "result": "apparent reduction of crypts and/or a loss of epithelial cells"}
    ]},
    {"smiles": "CN(C)C(=O)C(CCN1CCC(O)(c2ccc(Cl)cc2)CC1)(c1ccccc1)c1ccccc1", "note": "[loperamide]", "values": [
      {"measurement": "control of diarrhea", "setting": "[20]", "result": "successful in most cases"}
    ]},
    {"smiles": "CC/C(=C(\\c1ccccc1)c1ccc(OCCN(C)C)cc1)c1ccccc1", "note": "[tamoxifen]", "values": [
      {"measurement": "repression of G1-specific protein kinase activity", "setting": "[21]", "result": "repression of G1 -specific protein kinase activity"},
      {"measurement": "cell cycle block", "setting": "[22]", "result": "blocks cell cycle progression in G0 /G1"},
      {"measurement": "cell cycle block", "setting": "[22]; listed as Tamoxifen", "result": "block in the G0 /G1 phase of the cell cycle"},
      {"measurement": "morphology and function of the colon", "setting": "[23]", "result": "improvement in morphology and function of the hamster colon; also recorded: reduces the colonic pathology and physiological effects"},
      {"measurement": "weight loss associated with CPT-11 administration", "setting": "[24]; tamoxifen pre- and co-treatment", "result": "reduced; also recorded: reduces weight loss attributable to diarrhea"},
      {"measurement": "survival", "setting": "[24]; tamoxifen pre- and co-treatment with CPT-11", "result": "survival increased"},
      {"measurement": "recovery of replication after SN-38", "setting": "[25]", "result": "regained replication kinetics to a greater extent; also recorded: enhances the recovery of a non-tumor cell line from SN-38-induced inhibition"}
    ]}
  ]
}
